Common to all, as to assay: DTP human tumour cell line panel, 48 h
In assay [1] the test system is EKVX NSCLC.
Assay [2] deals with SF-539 CNS.
Assay [3] relates to SK-MEL-5 melanoma.
The test system of assay [4] is SN12C renal.
In assay [5] the test system is SNB-19 CNS.
In assay [6] the test system is U251 CNS.
Assay [7] deals with UACC-257 melanoma.
Assay [8] relates to HCC-2998 colon.

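Where inhibition never reached the appropriate level, the endpoint shown equals the highest concentration tested. Otherwise, values were interpolated linearly from a five-concentration, 48-hour dose response in 96-well plates. Definition used: TGI = concentration required for complete inhibition of growth.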

As to `Cc1cc2c(=O)c3ccccc3[nH]c2c(C(N)=O)c1C`, the TGI in assay [1], in assay [2], in assay [3], in assay [4], in assay [5] and in assay [6] was > 100 µM throughout. Besides, the TGI (usually the concentration at which net growth stops) in assay [7] is > 100 µM.

As to `CCOC(=O)c1ccc(/C(C)=N/NC(N)=S)cc1`, the TGI in assay [1], in assay [8], in assay [2], in assay [3], in assay [4] and in assay [5] was > 100 µM throughout. The TGI in assay [6] is > 100 µM.

`COc1cc(OC)c2c(=O)cc(-c3ccc(OC)c(OC)c3OC)oc2c1`: the concentration for total growth inhibition (TGI) in assay [1], in assay [8], in assay [2], in assay [4], in assay [5] and in assay [7] was > 100 µM each time.

Turning to `O=C(OC1CCC(=C2SCCCS2)[C@H]1C1SCCCS1)c1ccccc1` (some centres undefined), the TGI in assay [1], in assay [8], in assay [2], in assay [4], in assay [5] and in assay [6] was > 100 µM in each case. Further, in assay [7], the concentration for total growth inhibition (TGI) was > 100 µM.

As for `O=C(CC1C(=O)Nc2ccccc2S1=O)Nc1cc(Cl)ccc1Cl` (centres undefined), the TGI in assay [1], in assay [8], in assay [2], in assay [3], in assay [4] and in assay [5] was > 100 µM each time. Moreover, the TGI in assay [6] and in assay [7] was > 100 µM throughout.

`C=CCCCCC1CCC2CCC(CCCCC=C)N12` (centres undefined): the TGI in assay [8] was 30 µM; in assay [2], 30.6 µM; in assay [3], 26.9 µM; in assay [4], 29.9 µM; in assay [5], 35.3 µM; in assay [6], 34.6 µM. In addition, in assay [7], the TGI worked out at 29.3 µM.

Regarding `Cc1ccc2nc(/C(=C/c3ccc(/C=C(\NC(=O)c4ccccc4)c4nc5ccc(C)cc5[nH]4)c(C)c3)NC(=O)c3ccccc3)[nH]c2c1`, the TGI was > 100 µM in assay [1]; 28.9 µM in assay [2]; 33.5 µM in assay [3]; 30.1 µM in assay [4]; > 100 µM in assay [5]; 60.2 µM in assay [6].

Take `O=C(Nc1cccc(Cl)c1)C(=O)C(C(=O)c1ccc2ccccc2c1)C1OC(=O)c2ccccc21` (centres undefined): the TGI in assay [1] was > 100 µM; in assay [8], 21.8 µM; in assay [3], 30.3 µM; in assay [4], 51 µM; in assay [5], 28 µM; in assay [6], 21.2 µM. For the same compound, the TGI in assay [7] came to 55.5 µM.

`COC(=O)C(=Cc1cc(OC)c(OC)c(OC)c1-c1cc2c(cc1C1(C)OCCS1)OCO2)C(=O)OC` (centres undefined): the total growth inhibition concentration (TGI) in assay [1], in assay [8], in assay [2], in assay [3], in assay [4] and in assay [5] was > 100 µM each time. The TGI in assay [6] and in assay [7] was > 100 µM throughout.

As to `CC12CCC(=O)C[C@H]1CCC(OC=O)C2Br` (some centres undefined), the concentration for total growth inhibition (TGI) in assay [8], in assay [2], in assay [3], in assay [4], in assay [5] and in assay [6] was > 100 µM in each case. The total growth inhibition concentration (TGI) in assay [7] was > 100 µM.

Regarding `COc1c(O)c2c(=O)cc3c4c5c(cc(=O)c6c(O)c(OC)c(CC(C)O)c(c(c1CC(C)O)c24)c65)OCO3` (centres undefined), the total growth inhibition concentration (TGI) in assay [2] was 4.31 µM; in assay [3], 2.94 µM; in assay [4], 3.18 µM; in assay [5] it was 7.53 µM; in assay [6], 4.08 µM; in assay [7], 2.78 µM.

`Cc1nc(Nc2ccc(Cl)cc2)sc1C(=O)NNC(=S)NN`: the TGI in assay [1] stood at 46.8 µM; in assay [8] it was 28.8 µM; in assay [2], 31.8 µM; in assay [3], 32.9 µM; in assay [4], 34.3 µM; in assay [5], 34.8 µM. The total growth inhibition concentration (TGI) was found to be 32.3 µM in assay [6] and 27.3 µM in assay [7].

Consider `CN(C)CCC(/C=C/c1ccccc1)=N\Nc1ccccc1`, for which the total growth inhibition concentration (TGI) in assay [1] was determined as 6.47 µM; in assay [2], 4.02 µM; in assay [3], 13.1 µM; in assay [4], 11.6 µM; in assay [5] it was 14.1 µM; in assay [6], 4.58 µM. Further, the concentration for total growth inhibition (TGI) in assay [7] is 9.76 µM.

With `O=C(/C(=C/c1ccc(Cl)cc1)c1ccccc1)c1ccccc1`, the concentration for total growth inhibition (TGI) was determined as 72.4 µM in assay [1]; 31.2 µM in assay [8]; 31.3 µM in assay [2]; 31.7 µM in assay [4]; 33.9 µM in assay [6]; 29 µM in assay [7].

`Cc1ccccc1C(=O)c1cc(O)ccc1O`: the TGI in assay [1], in assay [8], in assay [2], in assay [3], in assay [4] and in assay [5] was > 100 µM in each case. In addition, the TGI in assay [6] and in assay [7] was > 100 µM in each case.

Turning to `N#CC(C(=O)/C(=N\NC(N)=O)C(C#N)c1ccc(Cl)cc1)c1ccc(Cl)cc1` (centres undefined), the total growth inhibition concentration (TGI) in assay [1], in assay [2], in assay [3], in assay [4], in assay [5] and in assay [6] was > 100 µM in each case. The TGI in assay [7] is > 100 µM.

For `C/C(CC(=O)Nc1ccc(C)c(C)c1)=N\N(c1ccccc1)c1ccccc1`, the concentration for total growth inhibition (TGI) in assay [1], in assay [8], in assay [2], in assay [3], in assay [4] and in assay [5] was > 100 µM each time. Besides, the concentration for total growth inhibition (TGI) in assay [6] was 30.5 µM; in assay [7], > 100 µM.

Take `CCCCCCCCCCCCCCCC(=O)OCCOCCOCCOCc1ccccc1`: the total growth inhibition concentration (TGI) in assay [1], in assay [2], in assay [3], in assay [4], in assay [5] and in assay [6] was > 100 µM each time. In assay [7], the TGI was > 100 µM.

In the case of `C#CC1/C(=C\C(=O)OC)CCCC1O` (centres undefined), the total growth inhibition concentration (TGI) in assay [1], in assay [8], in assay [2], in assay [3], in assay [4] and in assay [5] was > 100 µM each time. In addition, the TGI in assay [6] and in assay [7] was > 100 µM in each case.

As to `CC(C)(C)c1cc(C(P(=O)(O)O)P(=O)(O)O)cc(C(C)(C)C)c1O`, the concentration for total growth inhibition (TGI) in assay [1], in assay [8], in assay [2], in assay [3], in assay [5] and in assay [6] was > 100 µM in each case. For the same compound, the TGI in assay [7] was > 100 µM.

As to `Cc1ccc(C)c(NC(=O)c2cccc([N+](=O)[O-])c2O)c1`, the TGI in assay [1] is > 100 µM; in assay [8] it was > 100 µM; in assay [2] it was > 100 µM; in assay [3], 25.2 µM; in assay [4] it was > 100 µM; in assay [5], > 100 µM. The concentration for total growth inhibition (TGI) is > 100 µM in assay [6] and 63 µM in assay [7].

Take `O=C1N=C2Sc3ccc4ccccc4c3N2C1=O`: the TGI in assay [1] was determined as 47.9 µM; in assay [8], 68.7 µM; in assay [2], 36.6 µM; in assay [3], 58 µM; in assay [4] it was 43.8 µM; in assay [5] it was 45.8 µM. For the same compound, the TGI came out at 39.6 µM in assay [6] and 96.8 µM in assay [7].

With `COC(=O)/C(=C/c1ccc(OC)cc1)C(C(=O)O)=C1CCCC1`, the concentration for total growth inhibition (TGI) in assay [1], in assay [8], in assay [2], in assay [3], in assay [4] and in assay [5] was > 100 µM each time. Also, the TGI in assay [6] and in assay [7] was > 100 µM throughout.

For `COc1ccc(OCC(=O)O)c2c1CCCC2=O`, the TGI in assay [1], in assay [8], in assay [2], in assay [3], in assay [4] and in assay [5] was > 100 µM throughout. In addition, the TGI in assay [6] and in assay [7] was > 100 µM throughout.

Consider `CN(C)C(=S)/N=c1\sn(C)/c(=N\C(=S)N(C)C)n1C`, for which the TGI in assay [1], in assay [8], in assay [2], in assay [3], in assay [4] and in assay [5] was > 100 µM throughout. For the same compound, the concentration for total growth inhibition (TGI) in assay [6] and in assay [7] was > 100 µM each time.

As for `COC1C(OC(=S)Nc2ccccc2)c2ccccc2N1C(C)=O` (centres undefined), the TGI in assay [1], in assay [8], in assay [2], in assay [4], in assay [5] and in assay [6] was > 100 µM each time. In assay [7], the TGI was > 100 µM.
